The source of these data is patent US8309550B2, “Kinase inhibitors and their use as pharmaceutical agents” (Shanghai Genomics, Inc., priority 2011, dated 2012).

For experiment [1], the target named is T1, Aurora A (Homo sapiens, UniProt O14965).
T1 construct: purchased Invitrogen PV3612
T1 sequence (O14965 1-403): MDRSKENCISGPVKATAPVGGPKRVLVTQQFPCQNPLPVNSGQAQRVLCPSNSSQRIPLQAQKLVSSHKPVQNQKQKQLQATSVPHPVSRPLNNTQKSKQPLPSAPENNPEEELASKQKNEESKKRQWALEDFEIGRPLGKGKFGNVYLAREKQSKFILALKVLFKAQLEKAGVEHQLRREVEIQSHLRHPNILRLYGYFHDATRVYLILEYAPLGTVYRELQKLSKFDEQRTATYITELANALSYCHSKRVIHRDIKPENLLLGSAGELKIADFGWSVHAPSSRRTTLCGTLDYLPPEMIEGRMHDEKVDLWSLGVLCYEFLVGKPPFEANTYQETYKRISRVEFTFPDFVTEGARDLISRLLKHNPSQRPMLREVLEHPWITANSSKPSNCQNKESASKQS
In words: Z'-LYTE kinase assay Aurora A. Type of experiment: biochemical. The gist of the method:
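Recombinant human Aurora A (PV3612, Invitrogen) was assayed with a Z′-LYTE™ kinase kit at 16 ng/reaction using Ser/Thr 1 Peptide substrate. Enzyme, peptide and ATP were added to 384-well plates with diluted compounds and incubated 1 hr at room temperature in buffer containing 20 μM ATP, HEPES pH 7.5, 5 mM MgCl2, 0.5 mM EGTA and 0.005% Brij-35.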

Experiment [2] has as its system H460-luc. In words: 72 h MTT cytotoxicity assay H460-luc. Type of experiment: cell-based. The conditions noted are these: Homo sapiens. An excerpt:
MIT cytotoxicity assay. The compounds of the invention were subjected to a standard cellular proliferation assay using human cell lines. HeLa cells (Human cervix adenocarcinoma cell line, ATCC NO, CCL-2); A549 cells (Human lung carcinoma cells line, ATCC NO, CCL-185); U2OS cells (Human osteosarcoma cell line, ATCC NO, HTB-96); Eca-109 cells (Human esophageal carcinoma cell line); HepG2 (Human hepatocellular liver carcinoma cell line, ATCC NO, HB-8065); K562 cells (Human chronic myelogenous leukemia cell line, ATCC NO, CCL-243); SK-MEL-28 (Human malignant melanoma cell line, ATCC NO, HTB-72); Molt-4 (Human acute lymphoblastic leukemia cell line, ATCC NO, CRL-1582); H460 (Human large cell lung cancer cell line, ATCC NO, HTB-177); MDA-MB-231 (Human breast adenocarcinoma cell line, ATCC NO, HTB-26); MCF7 (Human breast adenocarcinoma cell line, ATCC NO, HTB-22); ACHN (Human renal cell adenocarcinoma cell line, ATCC NO, CRL-1611); PC-3M (Human prostate adenocarcinoma cell line, ATCC NO CRL-1435); HL60 (Human acute promyelocytic leukemia cell line, ATCC NO, CCL-240); THP-1 (Human acute monocytic leukemia, ATCC NO, TIB-202); Jurkat (Human acute T cell leukemia cell line, ATCC NO, CRL-2063); HCT-116 (Human colorectal carcinoma cell line, ATCC NO, CCL-247); HT-29 (Human colorectal adenocarcinoma cell line, ATCC NO, HTB-38™); WI-38 (Human normal lung cell line, ATCC NO, CCL-75); MRC-5 (Human normal lung cell line, ATCC NO, CCL-171).
HepG2, MDA-MB-231, WI-38 and MRC-5 cells were obtained from Shanghai Institute of Cell Biology, Chinese Academy of Sciences (Shanghai 200031, China). A549, HeLa, K562, MCF7, ACHN, H460, U2OS, Eca-109, MCF7, HL60, THP-1, Jurkat, HCT-116, HT-29, PC-3M, SK-MEL-28, Molt-4, H460 and […] cells were purchased from ATCC (American Type Culture Collection, USA).
Standard 72 h MTT (thiazolye blue; 3-[4,5-dimethylthiazol-2-yl]-2,5-diphenyltetrazolium bromide) assays were performed. Briefly, the cell lines used in this study were recovered and cultured according to the conditions recommended. 4000 cells per well were seeded into 96-well plates according to doubling time and incubated overnight at 37° C. Compounds were prepared in DMSO and a ½ dilution series in 100 μl cell culture media, added to cells (in duplicates) with the final DMSO concentration of 0.025%, and incubated for 72 hrs at 37° C. MTT solution (5 mg/ml) was added at 10 μl per well and incubated in the dark at 37° C. for 4 hr. Culture medium and MTT solution was removed. MTT dye was solubilised with 100 μl per well of DMSO with agitation. Absorbance was read at 562 nm and data analyzed using Sigmoid curve-fitting software Origin 6.0 (MicroCal, LLC, USA) to determine IC50 value.
(Tetrazolium assays rely on reduction of a dye to a coloured formazan, in cell work by metabolically active cells.)

In experiment [3] the target is T2, CDK2/cyclinA (Homo sapiens, UniProt P24941).
T2 construct: purchased Invitrogen PV3267
Briefly: Z'-LYTE kinase assay CDK2/cyclinA. Type of experiment: biochemical. The gist of the method: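 Recombinant human CDK2/cyclinA (Invitrogen PV3267) at 8 ng/reaction was incubated with Z′-LYTE™ Ser/Thr 12 Peptide and ATP in 384-well plates holding diluted test compounds for 1 hr at room temperature. Buffer contained 20 μM ATP, HEPES pH 7.5, 5 mM MgCl2, 0.5 mM EGTA and 0.005% Brij-35. IC50 came from sigmoid curve fitting in Origin 6.0.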

Experiment [4] concerns the target T3, CDK5/p35 (Homo sapiens, UniProt Q00535).
T3 construct: purchased Invitrogen PV3000
In words: Z'-LYTE kinase assay CDK5/p35. Type of experiment: biochemical. The gist of the method:
(§1)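 For CDK1/cyclinB and CDK5/p35, each human recombinant enzyme was used at 0.8 ng/reaction on Ser/Thr 12 peptide under 20 μM ATP. Inhibition was measured by Z′-LYTE FRET after 1 h reaction plus 1 h development at room temperature.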

The target of experiment [5] is Aurora B (Homo sapiens, UniProt Q96GD4). Briefly: Kinase assay Aurora B (Table I). Type of experiment: biochemical.
Experiment [6] addresses T4, CDK1/cyclinB (Homo sapiens, UniProt P06493).
T4 construct: purchased Invitrogen PV3292
Briefly: Z'-LYTE kinase assay CDK1/cyclinB. Type of experiment: biochemical. An outline of the steps:
as §1

The mark [7] stands for this setting: Table III, read-out: Target biochemical activity IC50 Aurora A.
Setting [8] is: H460, Table III, read-out: Cellular effect in mammalian cells IC50 H460.
The mark [9] stands for this setting: Table III, read-out: Target biochemical activity IC50 CDK2.
Where [10] appears, read: Table III, read-out: Target biochemical activity IC50 CDK5.
[11] abbreviates: Table III, read-out: Target biochemical activity IC50 Aurora B.
Where [12] appears, read: Table III, read-out: Target biochemical activity IC50 CDK1.
Setting [13] is: read-out: Kinase inhibition, IC50 Aurora A.
Setting [14] is: NCI-H460-Luc, H460-luc, 72 hrs, read-out: Cytotoxicity, MTT 72 hrs, IC50 H460-luc.
Where [15] appears, read: read-out: Kinase inhibition, IC50 CDK2A.
Where [16] appears, read: read-out: Kinase inhibition, IC50 CDK5/p35.
The mark [17] stands for this setting: read-out: Kinase inhibition, IC50 Aurora B.
[18] abbreviates: read-out: Kinase inhibition, IC50 CDK1B.

Like-named read-outs stand apart in the source and are kept apart here.

T4 sequence (P06493 whole entry): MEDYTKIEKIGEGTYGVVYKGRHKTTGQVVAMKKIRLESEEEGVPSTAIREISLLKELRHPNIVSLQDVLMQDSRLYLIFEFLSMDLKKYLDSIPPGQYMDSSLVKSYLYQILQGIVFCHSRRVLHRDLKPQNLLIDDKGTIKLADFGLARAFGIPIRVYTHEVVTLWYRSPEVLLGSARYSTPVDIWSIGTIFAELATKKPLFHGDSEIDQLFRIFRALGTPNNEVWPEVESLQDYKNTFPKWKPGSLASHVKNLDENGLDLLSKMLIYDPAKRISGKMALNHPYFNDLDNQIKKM
T4 sequence (P14635 whole entry partner): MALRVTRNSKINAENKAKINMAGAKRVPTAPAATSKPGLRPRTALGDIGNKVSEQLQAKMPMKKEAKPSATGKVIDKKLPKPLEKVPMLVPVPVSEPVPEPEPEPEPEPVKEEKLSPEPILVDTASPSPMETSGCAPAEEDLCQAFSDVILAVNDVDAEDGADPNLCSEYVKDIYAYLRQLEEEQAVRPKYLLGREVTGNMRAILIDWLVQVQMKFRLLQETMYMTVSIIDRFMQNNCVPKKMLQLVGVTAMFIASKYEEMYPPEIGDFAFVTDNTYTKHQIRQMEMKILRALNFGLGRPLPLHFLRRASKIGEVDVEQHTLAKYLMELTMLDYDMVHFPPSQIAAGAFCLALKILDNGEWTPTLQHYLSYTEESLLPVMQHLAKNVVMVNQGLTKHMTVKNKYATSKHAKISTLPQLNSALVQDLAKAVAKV
T3 sequence (Q00535 whole entry): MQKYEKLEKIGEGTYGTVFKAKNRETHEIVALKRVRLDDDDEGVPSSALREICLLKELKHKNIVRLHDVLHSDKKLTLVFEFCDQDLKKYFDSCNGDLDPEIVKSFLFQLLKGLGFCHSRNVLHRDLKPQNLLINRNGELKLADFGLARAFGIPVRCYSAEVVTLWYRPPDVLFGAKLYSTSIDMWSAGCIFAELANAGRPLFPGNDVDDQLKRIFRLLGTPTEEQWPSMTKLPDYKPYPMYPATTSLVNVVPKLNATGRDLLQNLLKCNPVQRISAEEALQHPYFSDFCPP
T3 sequence (Q15078 whole entry partner): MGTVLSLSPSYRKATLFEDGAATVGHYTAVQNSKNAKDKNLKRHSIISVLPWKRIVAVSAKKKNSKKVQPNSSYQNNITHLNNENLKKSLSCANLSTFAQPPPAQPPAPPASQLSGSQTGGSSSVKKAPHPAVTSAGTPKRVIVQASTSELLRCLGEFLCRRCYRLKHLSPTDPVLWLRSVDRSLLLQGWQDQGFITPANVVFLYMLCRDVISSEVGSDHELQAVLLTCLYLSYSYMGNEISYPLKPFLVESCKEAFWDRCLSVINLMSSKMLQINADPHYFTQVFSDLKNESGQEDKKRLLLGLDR
Chain of Aurora B (Q96GD4 whole entry): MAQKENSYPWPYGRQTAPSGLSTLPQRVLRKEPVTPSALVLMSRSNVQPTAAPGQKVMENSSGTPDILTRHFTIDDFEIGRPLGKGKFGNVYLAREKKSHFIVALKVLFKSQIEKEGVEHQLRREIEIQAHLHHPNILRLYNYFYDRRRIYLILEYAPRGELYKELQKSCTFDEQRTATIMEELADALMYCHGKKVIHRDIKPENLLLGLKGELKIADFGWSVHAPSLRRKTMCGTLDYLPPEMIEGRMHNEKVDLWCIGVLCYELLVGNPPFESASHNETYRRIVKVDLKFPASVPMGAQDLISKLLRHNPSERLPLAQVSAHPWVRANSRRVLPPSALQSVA

With `CCCn1cc(-c2ccnc(Nc3cccc(S(N)(=O)=O)c3)n2)c2nc(Cl)cc(C)c21` [SG53], the IC50 is 98 nM in experiment [1] (setting [7]); 2000 nM in experiment [2] (setting [8]); above 10000 nM in experiment [3] (setting [9]); above 10000 nM in experiment [4] (setting [10]); 190 nM in experiment [5] (setting [11]); 6840 nM in experiment [6] (setting [12]).

With `CCn1cc(-c2ccnc(Nc3cccc(C#N)c3)n2)c2cccnc21` [Compound 20, 3-(4-(1-Ethyl-1H-pyrrolo[2,3-b]pyridin-3-yl)pyrimidin-2-ylamino)benzonitrile], the IC50 in experiment [1] (setting [13]) was 6990 nM; in experiment [2] (setting [14]), above 10000 nM; in experiment [3] (setting [15]), 3480 nM; in experiment [4] (setting [16]), 4610 nM; in experiment [5] (setting [17]), above 10000 nM; in experiment [6] (setting [18]), 7010 nM.

Turning to `CCCn1cc(-c2ccnc(Nc3cccc(S(N)(=O)=O)c3)n2)c2ccncc21` [SG51], the IC50 was 50 nM in experiment [1] (setting [7]); below 100 nM in experiment [2] (setting [8]); 0.5 nM in experiment [3] (setting [9]); 0.5 nM in experiment [4] (setting [10]); 59 nM in experiment [5] (setting [11]); 0.4 nM in experiment [6] (setting [12]).

With `CCCn1cc(-c2ccnc(Nc3cccc(S(N)(=O)=O)c3)n2)c2ccncc21` [Compound 111, 3-(4-(1-Propyl-1H-pyrrolo[2,3-c]pyridin-3-yl)pyrimidin-2-ylamino)benzenesulfonamide], the IC50 is 50 nM in experiment [1] (setting [13]); 6 nM in experiment [2] (setting [14]); 0.5 nM in experiment [3] (setting [15]); 0.5 nM in experiment [4] (setting [16]); 59 nM in experiment [5] (setting [17]); 0.4 nM in experiment [6] (setting [18]).

`CCCn1cc(-c2ccnc(Nc3ccc(C)c(S(=O)(=O)N4CCOCC4)c3)n2)c2ccncc21` [SG52]: the IC50 in experiment [1] (setting [7]) was found to be 1650 nM; in experiment [2] (setting [8]) it was 220 nM; in experiment [3] (setting [9]), 30 nM; in experiment [4] (setting [10]), 25 nM; in experiment [5] (setting [11]), 1000 nM; in experiment [6] (setting [12]), 70 nM.

For `CCCn1cc(-c2ccnc(Nc3cccc(S(N)(=O)=O)c3)n2)c2nc(Cl)cc(C)c21` [Compound 42, 3-(4-(5-Chloro-7-methyl-1-propyl-1H-pyrrolo[3,2-b]pyridin-3-yl)pyrimidin-2-ylamino)benzenesulfonamide], the IC50 in experiment [1] (setting [13]) was 98 nM; in experiment [2] (setting [14]), 2000 nM; in experiment [3] (setting [15]) it was above 10000 nM; in experiment [4] (setting [16]) it was above 10000 nM; in experiment [5] (setting [17]), 190 nM; in experiment [6] (setting [18]) it was 6840 nM.

For the compound `CCCn1cc(-c2ccnc(Nc3ccc(S(N)(=O)=O)cc3)n2)c2ccncc21` [Compound 112, 4-(4-(1-Propyl-1H-pyrrolo[2,3-c]pyridin-3-yl)pyrimidin-2-ylamino)benzenesulfonamide], the IC50 was found to be 820 nM in experiment [1] (setting [13]); 20 nM in experiment [2] (setting [14]); 10 nM in experiment [3] (setting [15]); 1.3 nM in experiment [4] (setting [16]); 1.6 nM in experiment [5] (setting [17]); 0.4 nM in experiment [6] (setting [18]).

On to `CCCn1cc(-c2ccnc(Nc3ccc(S(N)(=O)=O)cc3)n2)c2nc(Cl)cc(C)c21` [SG54], for which the IC50 in experiment [1] (setting [7]) is 620 nM; in experiment [2] (setting [8]), 1030 nM; in experiment [3] (setting [9]), 1670 nM; in experiment [4] (setting [10]), above 10000 nM; in experiment [5] (setting [11]), 320 nM; in experiment [6] (setting [12]) it was above 10000 nM.

In the case of `CCn1cc(-c2ccnc(Nc3cccc(S(N)(=O)=O)c3)n2)c2cccnc21` [Compound 18, 3-(4-(1-Ethyl-1H-pyrrolo[2,3-b]pyridin-3-yl)pyrimidin-2-ylamino)benzenesulfonamide], the IC50 stood at 30 nM in experiment [1] (setting [7]); 30 nM in experiment [1] (setting [13]); 1270 nM in experiment [2] (setting [14]); 1270 nM in experiment [2] (setting [8]); 3 nM in experiment [3] (setting [9]); 3 nM in experiment [3] (setting [15]). Besides, the IC50 was found to be 271 nM in experiment [4] (setting [10]); 271 nM in experiment [4] (setting [16]); 700 nM in experiment [5] (setting [11]); 700 nM in experiment [5] (setting [17]); 624 nM in experiment [6] (setting [12]); 624 nM in experiment [6] (setting [18]).

In the case of `CCCn1cc(-c2ccnc(Nc3cccc(O)c3)n2)c2cccnc21` [Compound 16, 3-(4-(1-Propyl-1H-pyrrolo[2,3-b]pyridin-3-yl)pyrimidin-2-ylamino)phenol], the IC50 was above 10000 nM in experiment [1] (setting [13]); 4060 nM in experiment [2] (setting [14]); 6 nM in experiment [3] (setting [15]); 2320 nM in experiment [4] (setting [16]); 1250 nM in experiment [5] (setting [17]); 1360 nM in experiment [6] (setting [18]).

`CCCn1cc(-c2ccnc(Nc3ccc(C)c(S(=O)(=O)N4CCOCC4)c3)n2)c2cccnc21` [Compound 24, N-(4-Methyl-3-(morpholinosulfonyl)phenyl)-4-(1-propyl-1H-pyrrolo[2,3-b]pyridin-3-yl)pyrimidin-2-amine]: the IC50 was 9440 nM in experiment [1] (setting [13]); 1410 nM in experiment [2] (setting [14]); 4580 nM in experiment [3] (setting [15]); 8900 nM in experiment [4] (setting [16]); at least 10000 nM in experiment [5] (setting [17]); 5190 nM in experiment [6] (setting [18]).

For `CCCn1cc(-c2ccnc(Nc3cccc(S(N)(=O)=O)c3)n2)c2cccnc21` [Compound 22, 3-(4-(1-Propyl-1H-pyrrolo[2,3-b]pyridin-3-yl)pyrimidin-2-ylamino)benzenesulfonamide], the IC50 in experiment [1] (setting [13]) is 8 nM; in experiment [2] (setting [14]), 1110 nM; in experiment [3] (setting [15]), 190 nM; in experiment [4] (setting [16]), 400 nM; in experiment [5] (setting [17]) it was 3600 nM; in experiment [6] (setting [18]), 450 nM.

Consider `CCCn1cc(-c2ccnc(Nc3ccc(C)c(S(=O)(=O)N4CCOCC4)c3)n2)c2ccncc21` [Compound 102, N-(4-Methyl-3-(morpholinosulfonyl)phenyl)-4-(1-propyl-1H-pyrrolo[2,3-c]pyridin-3-yl)pyrimidin-2-amine], for which the IC50 came to 1650 nM in experiment [1] (setting [13]); 220 nM in experiment [2] (setting [14]); 30 nM in experiment [3] (setting [15]); 25 nM in experiment [4] (setting [16]); 3420 nM in experiment [5] (setting [17]); 70 nM in experiment [6] (setting [18]).
